From patent US20230331691A1, “TREPROSTINIL DERIVATIVE COMPOUNDS AND METHODS OF USING SAME” (CORSAIR PHARMA, INC., priority 2013, published 2023)

Experiments:
[1] = Human liver microsomal stability assay (Test 1); assay type: in vitro ADME; details: human liver microsomes, 0.5 uM test compound, 37° C., up to 45 minutes, pH 7.4, NADPH generating system; read-out: Test 1 T½
Procedure: (§1) (Test 1) Human liver microsomal stability assay was conducted by incubating 0.5 uM test compounds at 37° C. for up to 45 minutes in 50 mM of potassium phosphate buffer (pH 7.4) containing 0.5 mg of microsomal protein and 50 µL of NADPH generating system (7.8 mg of glucose 6-phosphate, 1.7 mg of NADPH and 6 U of glucose 6-phosphate dehydrogenase per mL in 2% w/v of sodium bicarbonate). At 0, 5, 15, 30 and 45 min., an aliquot was taken, quenched with internal standard containing stop solution. No co-factor controls at 45 minutes were also prepared. After incubation, the samples were analyzed by LC-MS/MS. Peak area ratios of analyte to internal standard were used to calculate the intrinsic clearance. The intrinsic clearance (CLint) was determined from the first order elimination constant by non-linear regression. Formation of the active drug Compound A over the time course was also monitored by LC-MS/MS analysis.

[2] = Human plasma stability assay (Test 2); assay type: in vitro ADME; details: heparinated human plasma, 0.5 uM test compound, 37° C., up to 120 minutes; read-out: Test 2 T½
Procedure: (Test 2) Human plasma stability assay was conducted by incubating 0.5 uM test compounds at 37° C. for up to 120 minutes in heparinated human plasma. At 0, 5, 15, 30, 60 and 120 […] min., an aliquot was taken, quenched with internal standard containing stop solution. After incubation, the samples were analyzed by LC-MS/MS. Peak area ratios of analyte to internal standard were used to calculate the half-life. Formation of the active drug Compound A over the time course was also monitored by LC-MS/MS analysis.

[3] = Human hepatocyte stability assay (Test 4); assay type: in vitro ADME; details: cryopreserved human hepatocytes; human hepatocytes 0.5 million cells/mL, 0.5 uM test compound, 37° C., up to 240 minutes; read-out: Test 4 T½
Procedure: (Test 4) Human hepatocyte stability assay was conducted by incubating 0.5 uM test compound at 37° C. for up to 240 minutes. Cryopreserved human hepatocytes were obtained from Celsis IVT ( Baltimore, Maryland). Cells were thawed according to vendor’s instructions and were suspended in William’s Medium E to 0.5 million cells/mL. Test compounds were spiked into the cell suspension to initiate the reactions. At 0, 10, 30, 60, 120 and 240 min., an aliquot was taken, quenched with internal standard containing stop solution. After incubation, the samples were analyzed by LC-MS/MS. Peak area ratios of analyte to internal standard were used to calculate the intrinsic clearance. The intrinsic clearance (CLint) was determined from the first order elimination constant by non-linear regression. Formation of the active drug Compound A over the time course was also monitored by LC-MS/MS analysis.

[4] = Human skin homogenate stability assay (Test 3); assay type: in vitro ADME; details: 0.5 uM test compound, 37° C., up to 45 minutes, pH 7.4, NADPH generating system, read-out: Test 3 T½
Procedure: as §1, with “3)” for “1)”, “skin homogenate” for “liver microsomal”, “conducted in a similar way as the human liver microsomal stability assay,” for “conducted”, “human skin homogenate” for “microsomal”

[5] = treprostinil as the free acid, cited from earlier work

CCCCC[C@H](O)CC[C@@H]1[C@H]2Cc3cccc(OCC(=O)NCCO)c3C[C@H]2C[C@H]1O [Compound 7, N-(2-Hydroxy-ethyl)-2-[2-hydroxy-1-(3-hydroxy-octyl)-2,3,3a,4,9,9a-hexahydro-1H-cyclopenta[b]naphthalen-5-yloxy]-acetamide]
half-life at 0.5 uM [1]: 15 to 30 min
half-life at 0.5 uM [2]: > 60 min
half-life at 0.5 uM [3]: 15 to 30 min

CCCCC[C@H](O)CC[C@@H]1[C@H]2Cc3cccc(OCC(=O)NCC(F)(F)F)c3C[C@H]2C[C@H]1O [Compound 14, 2-[2-Hydroxy-1-(3-hydroxy-octyl)-2,3,3a,4,9,9a-hexahydro-1H-cyclopenta[b]naphthalen-5-yloxy]-N-(2,2,2-trifluoro-ethyl)-acetamide]
half-life at 0.5 uM [1]: < 15 min
half-life at 0.5 uM [2]: > 60 min
half-life at 0.5 uM [4]: > 60 min
half-life at 0.5 uM [3]: < 15 min

CCCCC[C@H](O)CC[C@@H]1[C@H]2Cc3cccc(OCC(=O)N(C)CC(=O)OC)c3C[C@H]2C[C@H]1O [Compound 13, ({2-[2-Hydroxy-1-(3-hydroxy-octyl)-2,3,3a,4,9,9a-hexahydro-1H-cyclopenta[b]naphthalen-5-yloxy]-acetyl}-methyl-amino)-acetic acid methyl ester]
half-life at 0.5 uM [1]: < 15 min
half-life at 0.5 uM [2]: > 60 min
half-life at 0.5 uM [3]: < 15 min

CCCCC[C@H](O)CC[C@@H]1[C@H]2Cc3cccc(OCC(=O)OC(C)C(C)C)c3C[C@H]2C[C@H]1O (stereo partly drawn) [Compound 17, [2-Hydroxy-1-(3-hydroxy-octyl)-2,3,3a,4,9,9a-hexahydro-1H-cyclopenta[b]naphthalen-5-yloxy]-acetic acid 1,2-dimethyl-propyl ester]
half-life at 0.5 uM [1]: < 15 min
half-life at 0.5 uM [2]: 31 to 60 min
half-life at 0.5 uM [4]: 15 to 30 min

CCCCC[C@H](O)CC[C@@H]1[C@H]2Cc3cccc(OCC(=O)O)c3C[C@H]2C[C@H]1O [treprostinil]
absolute oral bioavailability ([5]; oral): less than 10%
systemic half life ([5]; due to significant metabolism): very short

CCCCC[C@H](O)CC[C@@H]1[C@H]2Cc3cccc(OCC(=O)OC)c3C[C@H]2C[C@H]1OC(=O)OCC [Compound 25, [2-Ethoxycarbonyloxy-1-(3-hydroxy-octyl)-2,3,3a,4,9,9a-hexahydro-1H-cyclopenta[b]naphthalen-5-yloxy]-acetic acid methyl ester]
half-life at 0.5 uM [1]: < 15 min
half-life at 0.5 uM [2]: > 60 min
half-life at 0.5 uM [4]: 31 to 60 min

CCCCC[C@H](O)CC[C@@H]1[C@H]2Cc3cccc(OCC(=O)O[C@@H](C)C(C)C)c3C[C@H]2C[C@H]1O [Compound 63]
half-life at 0.5 uM [1]: < 15 min
half-life at 0.5 uM [2]: 31 to 60 min
half-life at 0.5 uM [4]: 31 to 60 min

CCCCC[C@H](O)CC[C@@H]1[C@H]2Cc3cccc(OCC(=O)OC(C)C(C)(C)C)c3C[C@H]2C[C@H]1O (stereo partly drawn) [Compound 18, [2-Hydroxy-1-(3-hydroxy-octyl)-2,3,3a,4,9,9a-hexahydro-1H-cyclopenta[b]naphthalen-5-yloxy]-acetic acid 1,2,2-trimethyl-propyl ester]
half-life at 0.5 uM [1]: < 15 min
half-life at 0.5 uM [2]: > 60 min
half-life at 0.5 uM [4]: > 60 min

CCCCC[C@H](O)CC[C@@H]1[C@H]2Cc3cccc(OCC(=O)NCC4CC4)c3C[C@H]2C[C@H]1O [Compound 2, N-Cyclopropylmethyl-2-[2-hydroxy-1-(3-hydroxy-octyl)-2,3,3a,4,9,9a-hexahydro-1H-cyclopenta[b]naphthalen-5-yloxy]-acetamide]
half-life at 0.5 uM [1]: < 15 min
half-life at 0.5 uM [2]: > 60 min
half-life at 0.5 uM [3]: 31 to 60 min

CCCCC[C@H](O)CC[C@@H]1[C@H]2Cc3cccc(OCC(=O)O[C@H](C)CC)c3C[C@H]2C[C@H]1O [Compound 60]
half-life at 0.5 uM [1]: < 15 min
half-life at 0.5 uM [2]: 31 to 60 min
half-life at 0.5 uM [4]: 31 to 60 min

CCCCC[C@H](O)CC[C@@H]1[C@H]2Cc3cccc(OCC(=O)OC)c3C[C@H]2C[C@H]1OC(=O)CCCC [Compound 22, Pentanoic acid 1-(3-hydroxy-octyl)-5-methoxycarbonylmethoxy-2,3,3a,4,9,9a-hexahydro-1H-cyclopenta[b]naphthalen-2-yl ester]
half-life at 0.5 uM [1]: < 15 min
half-life at 0.5 uM [2]: > 60 min
half-life at 0.5 uM [4]: > 60 min

CCCCC[C@H](O)CC[C@@H]1[C@H]2Cc3cccc(OCC(=O)O[C@@H](C)CC)c3C[C@H]2C[C@H]1O [Compound 61]
half-life at 0.5 uM [1]: < 15 min
half-life at 0.5 uM [2]: 15 to 30 min
half-life at 0.5 uM [4]: 31 to 60 min

CCCCC[C@H](O)CC[C@@H]1[C@H]2Cc3cccc(OCC(=O)OC4CC5CCC4C5)c3C[C@H]2C[C@H]1O (stereo partly drawn) [Compound 19, [2-Hydroxy-1-(3-hydroxy-octyl)-2,3,3a,4,9,9a-hexahydro-1H-cyclopenta[b]naphthalen-5-yloxy]-acetic acid bicyclo[2.2.1]hept-2-yl ester]
half-life at 0.5 uM [1]: < 15 min
half-life at 0.5 uM [2]: 31 to 60 min
half-life at 0.5 uM [4]: 15 to 30 min

CCCCC[C@H](O)CC[C@@H]1[C@H]2Cc3cccc(OCC(=O)OCC(C)(C)C)c3C[C@H]2C[C@H]1O [Compound 16, [2-Hydroxy-1-(3-hydroxy-octyl)-2,3,3a,4,9,9a-hexahydro-1H-cyclopenta[b]naphthalen-5-yloxy]-acetic acid 2,2-dimethyl-propyl ester]
half-life at 0.5 uM [1]: < 15 min
half-life at 0.5 uM [2]: 15 to 30 min
half-life at 0.5 uM [4]: 15 to 30 min
